Laboratory results: ChEMBL document CHEMBL4000203, “Green synthesis and anticancer potential of chalcone linked-1,2,3-triazoles” (Eur J Med Chem, 2017)

Key:
MCF7 [1] = experiment: Cytotoxicity against human MCF7 cells assessed as growth inhibition at 10 uM measured after 48 hrs by MTT assay relative to control; assay type: functional; conditions: MCF7, 48 h, read-out: GI
MIA PaCa-2 [2] = experiment: Cytotoxicity against human MIAPaCa2 cells assessed as growth inhibition at 10 uM measured after 48 hrs by MTT assay relative to control; assay type: functional; conditions: MIA PaCa-2, 48 h, read-out: GI
A549 [3] = experiment: Cytotoxicity against human A549 cells assessed as growth inhibition at 10 uM measured after 48 hrs by MTT assay relative to control; assay type: functional; conditions: A549, 48 h, read-out: GI
HepG2 [4] = experiment: Cytotoxicity against human HepG2 cells assessed as growth inhibition at 10 uM measured after 48 hrs by MTT assay relative to control; assay type: functional; conditions: HepG2, 48 h, read-out: GI
[5] = Cytotoxicity against human FR2 cells assessed as growth inhibition at 10 uM measured after 48 hrs by MTT assay relative to control; assay type: cell-based; conditions: FR2 cells, read-out: GI
MCF7 [6] = experiment: Cytotoxicity against human MCF7 cells measured after 48 hrs by MTT assay; assay type: functional, cell-based; conditions: MCF7, 48 h
MIA PaCa-2 [7] = experiment: Cytotoxicity against human MIAPaCa2 cells measured after 48 hrs by MTT assay; assay type: functional, cell-based; conditions: MIA PaCa-2, 48 h
A549 [8] = experiment: Cytotoxicity against human A549 cells measured after 48 hrs by MTT assay; assay type: functional, cell-based; conditions: A549, 48 h
HepG2 [9] = experiment: Cytotoxicity against human HepG2 cells measured after 48 hrs by MTT assay; assay type: functional, cell-based; conditions: HepG2, 48 h
[10] = Cytotoxicity against human FR2 cells measured after 48 hrs by MTT assay; assay type: cell-based; conditions: FR2, 48 h
[11] = Selectivity index, ratio of IC50 for human FR2 cells to IC50 for human MCF7 cells; assay type: functional
[12] = Selectivity index, ratio of IC50 for human FR2 cells to IC50 for human MIAPaCa2 cells; assay type: functional
MIA PaCa-2 [13] = experiment: Cell cycle arrest in human MIAPaCa2 cells assessed as apoptotic cells at 10 uM measured after 24 hrs by propidium iodide staining based flow cytometric analysis (reference value: 1%); assay type: functional
MIA PaCa-2 [14] = experiment: Cell cycle arrest in human MIAPaCa2 cells assessed as accumulation at G1 phase at 10 uM measured after 24 hrs by propidium iodide staining based flow cytometric analysis (reference value: 59%); assay type: functional
MIA PaCa-2 [15] = experiment: Cell cycle arrest in human MIAPaCa2 cells assessed as accumulation at G2 phase at 10 uM measured after 24 hrs by propidium iodide staining based flow cytometric analysis (reference value: 5%); assay type: functional
MIA PaCa-2 [16] = experiment: Cell cycle arrest in human MIAPaCa2 cells assessed as accumulation at S phase at 10 uM measured after 24 hrs by propidium iodide staining based flow cytometric analysis (reference value: 36%); assay type: functional
MIA PaCa-2 [17] = experiment: Cell cycle arrest in human MIAPaCa2 cells assessed as apoptotic cells at 30 uM measured after 24 hrs by propidium iodide staining based flow cytometric analysis (reference value: 1%); assay type: functional
MIA PaCa-2 [18] = experiment: Cell cycle arrest in human MIAPaCa2 cells assessed as accumulation at G1 phase at 30 uM measured after 24 hrs by propidium iodide staining based flow cytometric analysis (reference value: 59%); assay type: functional
MIA PaCa-2 [19] = experiment: Cell cycle arrest in human MIAPaCa2 cells assessed as accumulation at G2 phase at 30 uM measured after 24 hrs by propidium iodide staining based flow cytometric analysis (reference value: 5%); assay type: functional
MIA PaCa-2 [20] = experiment: Cell cycle arrest in human MIAPaCa2 cells assessed as accumulation at S phase at 30 uM measured after 24 hrs by propidium iodide staining based flow cytometric analysis (reference value: 36%); assay type: functional
MIA PaCa-2 [21] = experiment: Cell cycle arrest in human MIAPaCa2 cells assessed as apoptotic cells at 50 uM measured after 24 hrs by propidium iodide staining based flow cytometric analysis (reference value: 1%); assay type: functional
MIA PaCa-2 [22] = experiment: Cell cycle arrest in human MIAPaCa2 cells assessed as accumulation at G1 phase at 50 uM measured after 24 hrs by propidium iodide staining based flow cytometric analysis (reference value: 59%); assay type: functional
MIA PaCa-2 [23] = experiment: Cell cycle arrest in human MIAPaCa2 cells assessed as accumulation at G2 phase at 50 uM measured after 24 hrs by propidium iodide staining based flow cytometric analysis (reference value: 5%); assay type: functional
MIA PaCa-2 [24] = experiment: Cell cycle arrest in human MIAPaCa2 cells assessed as accumulation at S phase at 50 uM measured after 24 hrs by propidium iodide staining based flow cytometric analysis (reference value: 36%); assay type: functional
MIA PaCa-2 [25] = experiment: Cell cycle arrest in human MIAPaCa2 cells assessed as apoptotic cells measured after 24 hrs by propidium iodide staining based flow cytometric analysis; assay type: functional
MIA PaCa-2 [26] = experiment: Induction of mitochondrial membrane depolarization in human MIAPaCa2 cells measured after 24 hrs by […] staining based flow cytometric analysis; assay type: functional, cell-based
MIA PaCa-2 [27] = experiment: Induction of mitochondrial membrane depolarization in human MIAPaCa2 cells at 10 uM measured after 24 hrs by […] staining flow cytometric analysis (reference value: 2%); assay type: functional
MIA PaCa-2 [28] = experiment: Induction of mitochondrial membrane depolarization in human MIAPaCa2 cells at 30 uM measured after 24 hrs by […] staining flow cytometric analysis (reference value: 2%); assay type: functional
MIA PaCa-2 [29] = experiment: Induction of mitochondrial membrane depolarization in human MIAPaCa2 cells at 50 uM measured after 24 hrs by […] staining flow cytometric analysis (reference value: 2%); assay type: functional
MIA PaCa-2 [30] = experiment: Induction of apoptosis in human MIAPaCa2 cells assessed as activation of procaspase-9 measured after 24 hrs by Western blot analysis; assay type: functional, cell-based
MIA PaCa-2 [31] = experiment: Induction of apoptosis in human MIAPaCa2 cells assessed as activation of procaspase-8 measured after 24 hrs by Western blot analysis; assay type: functional, cell-based
MIA PaCa-2 [32] = experiment: Induction of apoptosis in human MIAPaCa2 cells assessed as increase in casapase-3 cleavage measured after 24 hrs by Western blot analysis; assay type: functional, cell-based
MIA PaCa-2 [33] = experiment: Induction of apoptosis in human MIAPaCa2 cells assessed as increase in PARP-1 cleavage measured after 24 hrs by Western blot analysis; assay type: functional, cell-based

SMILES: COc1ccc(C(=O)/C=C/c2ccc(OCc3cn(Cc4ccccc4)nn3)cc2)cc1
- inhibition of growth at 10 µM (MCF7 [1]): 70%
- inhibition of growth at 10 µM (MIA PaCa-2 [2]): 68%
- inhibition of growth at 10 µM (A549 [3]): 44%
- inhibition of growth at 10 µM (HepG2 [4]): 51%
- inhibition at 48 h, 10 µM [5]: 6%
- IC50 (MCF7 [6]): 5 µM
- IC50 (MIA PaCa-2 [7]): 4 µM
- IC50 (A549 [8]): 11 µM
- IC50 (HepG2 [9]): 9 µM
- IC50 [10]: > 100 µM
- Ratio IC50 [11]: >20
- Ratio IC50 [12]: 25
- Activity (MIA PaCa-2 [13]): 2%
- Activity (MIA PaCa-2 [14]): 36%
- Activity (MIA PaCa-2 [15]): 11%
- Activity (MIA PaCa-2 [16]): 53%
- Activity (MIA PaCa-2 [17]): 6%
- Activity (MIA PaCa-2 [18]): 52%
- Activity (MIA PaCa-2 [19]): 14%
- Activity (MIA PaCa-2 [20]): 44%
- Activity (MIA PaCa-2 [21]): 11%
- Activity (MIA PaCa-2 [22]): 41%
- Activity (MIA PaCa-2 [23]): 8%
- Activity (MIA PaCa-2 [24]): 51%
- Activity (MIA PaCa-2 [25]): Dose-dependent effect
- Activity (MIA PaCa-2 [26]): Dose-dependent effect
- Activity (MIA PaCa-2 [27]): 4%
- Activity (MIA PaCa-2 [28]): 8%
- Activity (MIA PaCa-2 [29]): 11%
- Activity (MIA PaCa-2 [30]): Dose-dependent effect
- Activity (MIA PaCa-2 [31]): Dose-dependent effect
- Activity (MIA PaCa-2 [32]): Dose-dependent effect
- Activity (MIA PaCa-2 [33]): Dose-dependent effect
